Laboratory results: patent US20100298314A1, “NOVEL JNK INHIBITORS” (Schering Corporation, priority 2006, published 2010)
Where “and” joins values, the source holds several entries; their conditions need not be identical. Identical values can stand only once. Like-named read-outs stand apart in the source and are kept apart here.

Tests used:
[1] = target: JNK1 (Homo sapiens, UniProt P45983); assay: JNK1 kinase DELFIA (phosphorylation of biotinylated GST-ATF2); format: biochemical
Experimental: (§1) Before initiation of kinase reactions, compounds were pre-incubated with the enzyme for 10 minutes. Pre-incubation reactions contained 50 mM HEPES pH 7.3, 10 mM MgCl2, 1 mM DTT, 75 mM NaCl, 1 mM EDTA, 1 mM EGTA, 0.01% CHAPS, 2 nM JNK1, 6 ug/mL biotinylated GST-ATF2, 0.1 mg/ml BSA, 5% DMSO and 0-100 μM compound in a total volume of 40 μL. After a 10 minute room temperature pre-incubation, 10 μL of 35 μM ATP was added to start the reaction (final concentration of ATP=7 uM). Reactions were incubated at room temperature for 30 minutes. A small aliquot (10 uL) was taken and quenched by adding into 190 uL of DELFIA Assay buffer containing 100 mM EDTA. The amount of phosphate transferred to biotinylated GST-ATF2 was measured using the Dissociation Enhanced Lanthanide Fluorescence Immuno-assay (DELFIA) from Perkin Elmer according to manufacturers protocol. Briefly, biotinylated GST-ATF2 was captured on streptavidin coated plates for 1 hour, washed twice, then incubated for 1 hour with a 1:1000 dilution of rabbit-anti-phospho-ATF2 antibody and a 1:3500 dilution of Europium-labeled anti-rabbit secondary antibody. Free antibody was removed with six washes, Europium was dissociated from the antibody, and Europium fluorescence was measured using an excitation wavelength of 340 nm and an emission wavelength of 615 nm. JNK2 and JNK3 kinase reactions were carried out similarly, with the exception that the final concentration of ATP was 4 uM and 2 uM, respectively.

[2] = target: JNK2 (Homo sapiens, UniProt P45984); assay: JNK2 kinase DELFIA (phosphorylation of biotinylated GST-ATF2); format: biochemical; details: final ATP 4 uM, reported as range for a group
Experimental: as §1

[3] = DELFIA, 2 nM JNK1, final ATP 7 uM, 10 min pre-incubation, reported as range for a group

Chain of JNK1 (P45983 whole entry, species assumed): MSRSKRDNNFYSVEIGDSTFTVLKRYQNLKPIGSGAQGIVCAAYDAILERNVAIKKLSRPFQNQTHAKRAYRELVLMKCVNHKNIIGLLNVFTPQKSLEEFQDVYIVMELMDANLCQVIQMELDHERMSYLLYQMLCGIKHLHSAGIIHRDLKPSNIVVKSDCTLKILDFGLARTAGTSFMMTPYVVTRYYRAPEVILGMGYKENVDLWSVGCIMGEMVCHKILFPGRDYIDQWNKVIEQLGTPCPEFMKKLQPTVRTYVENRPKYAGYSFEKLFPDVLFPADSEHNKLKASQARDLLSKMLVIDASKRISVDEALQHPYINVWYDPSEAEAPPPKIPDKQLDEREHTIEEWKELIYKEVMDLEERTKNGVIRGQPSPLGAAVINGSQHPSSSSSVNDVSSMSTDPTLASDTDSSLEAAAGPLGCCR
Chain of JNK2 (P45984 whole entry, species assumed): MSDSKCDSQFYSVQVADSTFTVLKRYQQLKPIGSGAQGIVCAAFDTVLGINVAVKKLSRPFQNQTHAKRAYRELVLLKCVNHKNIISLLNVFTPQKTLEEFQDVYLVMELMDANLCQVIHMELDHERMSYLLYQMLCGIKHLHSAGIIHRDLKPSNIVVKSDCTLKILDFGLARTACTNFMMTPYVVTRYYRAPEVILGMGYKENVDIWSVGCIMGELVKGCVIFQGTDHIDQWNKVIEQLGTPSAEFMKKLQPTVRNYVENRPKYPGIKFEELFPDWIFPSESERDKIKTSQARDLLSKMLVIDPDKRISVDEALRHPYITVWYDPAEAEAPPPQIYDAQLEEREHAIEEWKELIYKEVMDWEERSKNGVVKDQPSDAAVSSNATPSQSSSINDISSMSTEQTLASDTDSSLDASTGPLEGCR

Structure (SMILES)	IC50 [1, 3]	IC50 ([1]; read-out: JNK 1 IC50) [µM]	IC50 [2] [µM]
CC[C@H](C)[C@@H](CO)NC(=O)c1c(-c2ccsc2)nc2c(C(=O)NCc3ccc4nc(N)sc4c3)cccn12 [Compound 46]	0.006 to 0.1 µM	–	–
CC(C)[C@@H](CO)NC(=O)c1c(-c2ccsc2)nc2c(C(=O)NCc3ccc4nc(N)sc4c3)cccn12 [Compound 47]	0.006 to 0.1 µM	–	–
Nc1nc2ccc(CNC(=O)c3cccn4c(C(=O)N[C@H](CO)C5CCCCC5)c(-c5ccsc5)nc34)cc2s1 [Compound 69]	0.006 to 0.1 µM	–	–
CC(C)C[C@@H](CO)NC(=O)c1c(-c2ccsc2)nc2c(C(=O)NCc3ccc4c(c3)OCO4)cccn12 [Compound 94]	0.006 to 0.1 µM	–	–
CC(C)c1nc2ccc(CNC(=O)c3cccn4c(C(=O)NCC5(O)CCCCC5)c(-c5ccsc5)nc34)cc2[nH]1 [Compound 117]	0.006 to 0.1 µM	–	–
Cc1nc2ccc(CNC(=O)c3cccn4c(C(=O)NCC5(O)CCCCC5)c(-c5ccsc5)nc34)cc2[nH]1 [Compound 118]	0.006 to 0.1 µM	0.023	–
CCc1nc2c(C(=O)NCc3ccc4nc(C)sc4c3)cccn2c1C(=O)N[C@H](CO)CC(C)C [Compound 131]	0.006 to 0.1 µM	–	–
Cc1nc2cc(CNC(=O)c3cccn4c(C(=O)N[C@H](CO)CC(C)C)c(-c5ccsc5)nc34)ccc2n1C [Compound 139]	0.006 to 0.1 µM and 0.006 to 0.02 µM	–	–
CC(C)C[C@@H](CO)NC(=O)c1c(-c2ccsc2)nc2c(C(=O)NCc3cnc4nc(N)sc4c3)cccn12 [Compound 150]	0.006 to 0.1 µM	–	–
CNc1nc2ccc(CNC(=O)c3cccn4c(C(=O)N[C@H](CO)CC(C)C)c(-c5ccccn5)nc34)cc2s1 [Compound 156]	0.006 to 0.02 µM	–	–
CC(C)C[C@@H](CO)NC(=O)c1c(-c2ccsc2)nc2c(C(=O)NCc3ccc(C(F)(F)F)nc3)cccn12 [Compound 209]	0.006 to 0.1 µM	–	–
CC(C)C[C@@H](CO)NC(=O)c1c(-c2ccsc2)nc2c(C(=O)N[C@H](C)c3ccc(O)cc3)cccn12 [Compound 213]	0.006 to 0.1 µM	–	–
CC(C)C[C@@H](CO)NC(=O)c1c(-c2ccsc2)nc2c(C(=O)NCc3cnn(-c4cccc(C(F)(F)F)c4)c3)cccn12 [Compound 224]	0.006 to 0.1 µM	–	–
O=C(NCc1ccc2c(c1)OCO2)c1cccn2c(C(=O)N[C@H](CO)c3ccccc3)c(-c3ccsc3)nc12 [Compound 238]	0.006 to 0.1 µM	–	–
CSCC[C@@H](CO)NC(=O)c1c(-c2ccsc2)nc2c(C(=O)NCc3ccc(S(C)(=O)=O)cc3)cccn12 [Compound 242]	0.006 to 0.1 µM	–	–
COc1ccc(-c2cc(CNC(=O)c3cccn4c(C(=O)N[C@H](CO)CC(C)C)c(-c5ccsc5)nc34)no2)cc1 [Compound 274]	0.006 to 0.1 µM	–	–
CC(C)C[C@@H](CO)NC(=O)c1c(-c2ccsc2)nc2c(C(=O)NCc3ccc4[nH]ncc4c3)cccn12 [Compound 277]	0.006 to 0.1 µM and 0.006 to 0.02 µM	–	–
Nc1nc2ccc(CNC(=O)c3cccn4c(C(=O)N[C@@H]5c6ccccc6C[C@@H]5O)c(-c5ccsc5)nc34)cc2s1 [Compound 279]	0.006 to 0.1 µM	–	–
CCCC[C@@H](CO)NC(=O)c1c(-c2ccsc2)nc2c(C(=O)NCc3ccc4nc(N)sc4c3)cccn12 [Compound 280]	0.006 to 0.1 µM	–	–
Nc1nc2ccc(CNC(=O)c3cccn4c(C(=O)NC5CCCC5CO)c(-c5ccsc5)nc34)cc2s1 (centres unmarked) [Compound 283]	0.006 to 0.1 µM	–	–
Nc1nc2ccc(CNC(=O)c3cccn4c(C(=O)N[C@@H](CO)CC5CC5)c(-c5ccsc5)nc34)cc2s1 [Compound 285]	0.006 to 0.1 µM	–	–
CC(C)C[C@@H](CO)NC(=O)c1c(-c2ccsc2)nc2c(C(=O)NCc3ccc(NC4CCCC4)nc3)cccn12 [Compound 292]	0.006 to 0.1 µM	–	–
CC(C)C[C@@H](CO)NC(=O)c1c(-c2ccsc2)nc2c(C(=O)NCc3ccc(N4CCCCCC4)nc3)cccn12 [Compound 298]	0.006 to 0.1 µM	–	–
CC(C)C[C@@H](CO)NC(=O)c1c(-c2ccsc2)nc2c(C(=O)NCc3ccc(-c4ccccc4)nc3)cccn12 [Compound 305]	0.006 to 0.1 µM	–	–
CC(C)C[C@@H](CO)NC(=O)c1c(-c2ccsc2)nc2c(C(=O)NCc3ccc(N4CCCC4=O)nc3)cccn12 [Compound 324]	0.006 to 0.1 µM	–	–
CC(C)C[C@@H](CO)NC(=O)c1c(-c2ccsc2)nc2c(C(=O)NCc3ccc(C(=O)O)cc3)cccn12 [Compound 326]	0.006 to 0.1 µM	–	–

Structure (SMILES)	IC50 [1, 3]	IC50 ([1]; read-out: JNK 1 IC50) [µM]	IC50 [2] [µM]
Cc1cc(C(=O)NCc2ccc3nc(N)sc3c2)c2nc(C)c(C(=O)N[C@H](CO)CC(C)C)n2c1 [Compound 351]	–	–	1.07 to 11.5
CC(C)C[C@@H](CO)NC(=O)c1c(-c2cccnc2)nc2c(C(=O)NCc3ccc4nc(N)sc4c3)cccn12 [Compound 405]	0.006 to 0.1 µM	–	–
CCc1nc2c(C(=O)NCc3cnn(-c4ccc(C)cc4)c3)cccn2c1C(=O)O [Compound 445]	0.006 to 0.1 µM	–	–
CC(C)C[C@@H](CO)NC(=O)c1c(-c2ccc(Cl)cc2)nc2c(C(=O)NCc3ccc4nc(N)sc4c3)cccn12 [Compound 453]	0.006 to 0.1 µM	–	–
CCc1nc2c(C(=O)NCc3ccc(S(C)(=O)=O)cc3)cccn2c1C(=O)N[C@H](CO)CC(C)C [Compound 457]	0.006 to 0.1 µM	–	–
CCc1nc2c(C(=O)NCc3ccc4[nH]ncc4c3)cccn2c1C(=O)N[C@H](CO)CC(C)C [Compound 471]	0.006 to 0.1 µM	–	–
CCc1nc2c(C(=O)NCc3cnn(-c4ccc(S(C)(=O)=O)cc4)c3)cccn2c1C(=O)N[C@H](CO)CC(C)C [Compound 472]	0.006 to 0.1 µM	–	–
CC(C)C[C@@H](CO)NC(=O)c1c(-c2ccccn2)nc2c(C(=O)NCc3ccn(-c4ccccc4)n3)cccn12 [Compound 477]	0.006 to 0.1 µM	–	–
Cc1nc2ccc(CNC(=O)c3cccn4c(C(=O)NC(C)C)c(-c5ccccn5)nc34)cc2[nH]1 [Compound 480]	0.006 to 0.1 µM	–	–
CC(C)C[C@@H](CO)NC(=O)c1c(-c2ccccn2)nc2c(C(=O)NCc3cnc4nc(N)sc4c3)cccn12 [Compound 481]	0.006 to 0.1 µM	–	–
CC(C)C[C@@H](CO)NC(=O)c1c(-c2ccccn2)nc2c(C(=O)NCc3cnn(-c4cccc(C(F)(F)F)c4)c3)cccn12 [Compound 484]	0.006 to 0.1 µM	–	–
CC(C)C[C@@H](CO)NC(=O)c1c(-c2ccccn2)nc2c(C(=O)NCc3ccc(N4CCCC4=O)cc3)cccn12 [Compound 485]	0.006 to 0.1 µM and 0.006 to 0.02 µM	–	–
CC(C)C[C@@H](CO)NC(=O)c1c(-c2ccccn2)nc2c(C(=O)NCc3ccc4occc4c3)cccn12 [Compound 489]	0.006 to 0.1 µM	–	–
Cc1cccc(-n2cc(CNC(=O)c3cccn4c(C(=O)N[C@H](CO)CC(C)C)c(-c5ccccn5)nc34)cn2)c1 [Compound 490]	0.006 to 0.1 µM	–	–
CC(C)C[C@@H](CO)NC(=O)c1c(-c2ccccn2)nc2c(C(=O)NCc3cnn(-c4ccc(S(C)(=O)=O)cc4)c3)cccn12 [Compound 491]	0.006 to 0.1 µM and 0.006 to 0.02 µM	–	–
CC(C)C[C@@H](CO)NC(=O)c1c(-c2ccccn2)nc2c(C(=O)NCc3ccc4[nH]ncc4c3)cccn12 [Compound 502]	0.006 to 0.1 µM and 0.006 to 0.02 µM and 0.006 to 0.01 µM	–	–
CC(C)C[C@@H](CO)NC(=O)c1cnc2c(C(=O)NCc3ccc4nc(N)sc4c3)cccn12 [Compound 543]	0.006 to 0.1 µM	–	–
CC(C)C[C@@H](CO)NC(=O)c1c(-c2ccccc2F)nc2c(C(=O)NCc3ccc4nc(N)sc4c3)cccn12 [Compound 545]	0.006 to 0.1 µM	–	–
COC[C@H](CC(C)C)NC(=O)c1c(-c2ccsc2)nc2c(C(=O)NCc3ccc4nc(N)sc4c3)cccn12 [Compound 593]	0.006 to 0.1 µM	–	–
Cc1nc2c(C(=O)NCc3ccc4nc(N)sc4c3)cccn2c1C(=O)N[C@H](CO)CC(C)C [Compound 598]	0.006 to 0.1 µM and 0.006 to 0.02 µM	–	–
CC(C)C[C@@H](CO)NC(=O)c1cnc2c(C(=O)NCc3cnn(-c4ccc(S(C)(=O)=O)cc4)c3)cccn12 [Compound 629]	0.006 to 0.02 µM and 0.006 to 0.01 µM	–	–
Cc1nc2ccc(-n3cc(CNC(=O)c4cccn5c(C(=O)N[C@H](CO)CC(C)C)cnc45)cn3)cc2n1C [Compound 647]	0.006 to 0.1 µM and 0.006 to 0.02 µM	0.016	–
CC(C)C[C@@H](CO)NC(=O)c1cnc2c(C(=O)NCc3cnn(-c4ccc(S(=O)(=O)N(C)C)cc4)c3)cccn12 [Compound 650]	0.006 to 0.1 µM and 0.006 to 0.02 µM	–	–
CC(C)CC(CO)NC(=O)c1cnc2c(C(=O)NCc3cnn(-c4ccc(S(=O)(=O)N(C)C)c(Cl)c4)c3)cccn12 (centres unmarked) [Compound 651]	0.006 to 0.1 µM and 0.006 to 0.02 µM and 0.006 to 0.01 µM	0.01	–
CC(C)C[C@@H](CO)NC(=O)c1cnc2c(C(=O)NCc3cnn(-c4ccc(S(=O)(=O)N(C)C)c(F)c4)c3)cccn12 [Compound 652]	0.006 to 0.1 µM and 0.006 to 0.02 µM and 0.006 to 0.01 µM	0.011	–
CC(C)C[C@@H](CO)NC(=O)c1c(-c2ccsc2)nc2c(NC(=O)Cc3ccc4c(c3)OCO4)cccn12 [Compound 664]	0.006 to 0.1 µM	–	–
